Literature values as cited in patent publication US8193376B2, “Artemisinin derivatives with natural amino acids, peptides, and amino sugars for the treatment of infection and topical condition in mammals” (Bioderm Research, priority 2007, dated 2012).

Key:
nucleic acid synthesis = conditions: relative to artemisinin
malaria = conditions: relative to artemisinin

SMILES	ability to inhibit nucleic acid synthesis, times the activity of artemisinin (nucleic acid synthesis) [times]	antimalarial potency, times that of artemisinin (malaria) [times]	antimalarial potency higher than that of artemisinin (malaria) [%]
CO[C@H]1O[C@@H]2O[C@@]3(C)CC[C@H]4[C@H](C)CC[C@@H]([C@H]1C)[C@@]24OO3 [Artemether]	100	6	–
C[C@H]1[C@H](OC(=O)CCC(=O)O)O[C@@H]2O[C@@]3(C)CC[C@H]4[C@H](C)CC[C@@H]1[C@@]24OO3 [Artesunate]	100	5.2	–
C[C@H]1[C@@H](O)O[C@@H]2O[C@@]3(C)CC[C@H]4[C@H](C)CC[C@@H]1[C@@]24OO3 [Dihydroartemisinin]	100	–	60
CCO[C@H]1O[C@@H]2O[C@@]3(C)CC[C@H]4[C@H](C)CC[C@@H]([C@H]1C)[C@@]24OO3 [arteether, Arteether]	100	–	–
CCCOC(=O)OC1O[C@@H]2O[C@@]3(C)CC[C@H]4[C@H](C)CC[C@@H]([C@H]1C)[C@@]24OO3 (some centres unmarked) [propylcarbonate dihydroartemisinin]	100	–	–
